Where a name gives a salt, the structure may show the parent alone.

The subject of data set [1] is Nrf2 protein in Keap1 KO-mCherry cells. As to the kind of experiment: Immunoblotting of Nrf2 protein after HF treatment. In kind it is cell-based. The conditions noted are these: 50 nM HF, 0-18 hours, whole cell lysates. The procedure: (§1) For analyzing cultured cells, 1×10^6 WT-GFP and Keap1-mCherry Hepa1 cells were separately seeded on day −1 and treated with 50 nM HF on the next day (day 0). Whole cell lysates were prepared by lysing the cells with SDS buffer (0.25 M Tris-HCl (pH 6.8), 8% (w/v) SDS, and 20% glycerol) and collected 0, three, six, 12, and 18 hours after the HF treatment. An anti-Nrf2 antibody (Cell Signaling Technology, #12721, 1:500 dilution) and an anti-α-tubulin antibody (Sigma, T9026, 1:1000 dilution) were used.
(§2) To examine whether the selective decrease in the Keap1 KO-mCherry cells was caused by suppression of Nrf2 accumulation, Nrf2 protein was analyzed by immunoblotting at various points in time after isogenic Hepa1 cells were exposed to HF. […] The above experiment was repeated, and densitometry measurement of immunoblotting bands was conducted (FIG. 1F).

In data set [2] the test system is Nrf2 protein in WT-GFP cells. As to the kind of experiment: Immunoblotting of Nrf2 protein after HF treatment. Type of data set: cell-based. The settings on record: 50 nM HF, 0-18 hours, whole cell lysates. The procedure: as §1, §2
The nature of data set [3]: Systemic side effect markers in cancer-bearing mice. Type of data set: in vivo, Keap1^FB/FB:Kras^G12D mice. An excerpt:
Monocytes were isolated from the bone marrow, the spleen, and the thymus using Ficoll-Paque PREMIUM 1.084 (Cytiva 17-5446-02). The monocytes were stained with allophycocyanin-eFluor 780 conjugate anti-c-Kit (Invitrogen; Clone 2B8), Brilliant Violet 421 conjugate anti-B220 (Biolegend; Clone RA2-6B2), phycoerythrin conjugate anti-F4/80 (Biolegend; Clone BM8), fluorescein isothiocyanate conjugate anti-Ly6G (Biolegend; Clone 1A8), Brilliant Violet 421 conjugate anti-CD11b (Biolegend; Clone M1/70), fluorescein isothiocyanate conjugate anti-CD71 (eBiosciences; CloneR17217), phycoerythrin conjugate anti-Ter119 (eBiosciences; Clone TER-119), PE-Cyanine7 conjugate anti-CD4 (Invitrogen; CloneGK1.5), and allophycocyanin conjugate anti-CD8 (Biolegend; Clone S3-6.7). The dead cells were removed using propidium iodide staining. The analysis was made using FACSVerse (BD Biosciences). The data were analyzed using FlowJo software (BD Biosciences).
Because HF is slowly and continuously released from HFm through encapsulation of HF in polymer micelles, it was supposed that HFm may act as a far safer drug than HF. Thus, because the MTD of HF was 0.75 mg/kg bw, various side effect markers were examined in cancer-bearing model mice treated with 0.75 mg/kg bw of HFm and compared with those of the mice treated with the same amount of HF.
After KRAS-driven lung adenocarcinoma was grown for 17 weeks, the mice were treated with saline, HF (0.25 mg/kg), or HFm (0.25 mg/kg) every two days four times in total (FIG. 7A).

In data set [4] the test system is Keap1 KO-mCherry cells (Hepa1). Briefly: Cell fluorescence analysis (relative fluorescence as cell survival) after HF treatment. Type of data set: cell-based. The settings on record: HF at various doses up to 50 nM, 48 hours. The procedure: (§3) WT-GFP and Keap1-mCherry Hepa1 cells were prepared in the same manner as in Mol Cell Biol., 2020 Oct 26, 40(22). The cells were maintained in Dulbecco's modified Eagle's medium (DMEM) containing 10% (v/v) fetal bovine serum and antibiotics (penicillin-streptomycin) at 37° C. and 5% CO2.
(§4) For cell fluorescence analysis, 4×10^4 WT-GFP cells and 2×10^4 Keap1-mCherry Hepa1 cells were cultured separately on day −1 in a black 96-well plate (Corning; number 3904). On day 0, HF or saline was introduced at various concentrations, and then the plate was returned to an incubator at 37° C. until day 2. The fluorescence intensities of the cells were measured using a PHERAstar FS microplate reader (BMG Labtech, Ortenberg, Germany).
(§5) HF has been reported to suppress Nrf2 accumulation in cells (FIG. 1A). To examine the tumor suppressive role of HF in Nrf2-activated tumor cells, enhanced green fluorescent protein (EGFP)-expressing wild type (WT) Hepa1 cells (hereinafter also referred to as “WT-GFP cells”) and mCherry-expressing Keap1 knockout cells (hereinafter also referred to as “Keap1 KO-mCherry cells”) were treated with HF. Both isogenic cell lines used were the same as those in Mol Cell Biol., 2020 Oct 26, 40(22). […] It has been shown in Mol Cell Biol., 2020 Oct 26, 40(22) that there is a correlation between the relative fluorescence intensity and the cell survival rate.

A further data set deals with WT-GFP cells (Hepa1). The description is as above. In kind it is cell-based. The settings on record: HF at various doses up to 50 nM, 48 hours. The procedure: as §3, §4, §5
Setting [5] is: 0.75 mg/kg bw iv four times, vs. HFm or saline.

For `O=C(CC1NCCCC1O)Cn1cnc2cc(Br)c(Cl)cc2c1=O` (stereo not drawn) [HF, Halofuginone hydrobromide], the Nrf2 protein level result in data set [1] is given as “depleted rapidly”. The Nrf2 protein level result in data set [2] is “not detected at all the points in time”. In addition, in data set [3] (0.25 mg/kg bw iv four times), the “erythrocyte count in peripheral blood” value was “did not affect” and the “leukocyte count in peripheral blood” value is reported as “decreased the leukocyte count with significance”. Further, in data set [3] (0.25 mg/kg bw iv four times, vs. other groups), the body weight changes entry was “equivalent”. Further, in data set [3] (0.75 mg/kg bw iv four times), the “atrophy of the thymus” value is recorded as “remarkable”, the “erythroblasts (Ter119+CD71+) of the spleen” value was “decreased with significance”, the “erythrocytes in peripheral blood” value is given as “decreased” and the hematocrit levels entry was “decreased”. In data set [3] (0.75 mg/kg bw iv four times), the “leukocyte count in peripheral blood” value was “significant decrease”, the spleen cell count entry is “decreased with significance”, the spleen weight result was “decreased with significance” and the “thymus CD4 single-positive cells (CD4+CD8-) count” value is listed as “decreased”. Moreover, in data set [3] (0.75 mg/kg bw iv four times), the “thymus double-negative cells (CD4-CD8-) count” value was “decreased”, the “thymus double-positive cells (CD4+CD8+) count” value is recorded as “decreased”, the “thymus total cell count” value is on record as “decreased significantly” and the “total cell count of the bone marrow” value is listed as “decreased significantly”. Besides, in data set [3] (setting [5]), the “bone marrow B cells (B220+) count” value is recorded as “decreased significantly”, the “bone marrow macrophages (CD11b+F4/80+) count” value is on record as “decreased significantly”, the “bone marrow neutrophils (CD11b+Ly6G+) count” value is listed as “decreased significantly” and the “bone marrow precursor cells (c-Kit+) count” value is “decreased significantly”. The “thymus CD8 single-positive cells (CD4-CD8+)” value in data set [3] (0.75 mg/kg bw iv four times, vs. saline or HFm) is reported as “tendency towards a lower frequency”. Further, the “count of Keap1 KO-mCherry cells (relative fluorescence intensity)” value in data set [4] was “decreased significantly in a concentration-dependent manner”. The “count of WT-GFP cells (relative fluorescence intensity)” value with WT-GFP cells (Hepa1) is given as “did not decrease substantially”.
